pIC50: −log10 of the molar value.
These molecules were tested against T1, mGluR5 receptor (pig) (Sus scrofa, UniProt I3LUI7) (assay: [3H]-MPEP bond in the mGluR5 receptor bond assay (pig brain homogenate)). Conditions: 5 nM [3H]-MPEP; pig brain homogenate.
T1 construct: 450 μg protein from brain homogenate is incubated with 5 nM ^3[H]-MPEP; from tissue; host or cells: pig brain halves without medulla, cerebellum and pons
Assay type: binding
Description: I. Method for Determining the Inhibition of the [^3H]-MPEP Bond in the mGluR5 Receptor Bond Assay
Pig brain homogenate is produced by homogenisation (Polytron PT 3000, Kinematica AG, 10,000 rpm for 90 seconds) of pig brain halves without medulla, cerebellum and pons in buffer pH 8.0 (30 mM Hepes, Sigma, order no. H3375+1 tablet complete to 100 ml, Roche Diagnostics, order no. 1836145) in the ratio 1:20 (brain weight/volume) and differential centrifugation at 900×g and 40,000×g. In each case, 450 μg protein from brain homogenate is incubated with 5 nM ^3[H]-MPEP (Tocris, order no. […]
Thereafter, the batches are filtered with the help of a Brandel Cell Harvester (Brandel, TYP Robotic 9600) on unifilter plates with glass fibre filter mats (Perkin Elmer, order no. 6005177) and subsequently washed with buffer (as above) 3 times with in each case 250 μl per sample. The filter plates are subsequently dried for 60 min at 55° C. 30 μL Ultima Gold™ scintillator (Packard BioScience, order no. 6013159) is subsequently added per well and the samples are measured after 3 hours on the β-counter (Mikrobeta, Perkin Elmer). The unspecific bond is determined by addition of 10 μM MPEP (Tocris, order no. 1212).

T1 sequence (I3LUI7 19-1212): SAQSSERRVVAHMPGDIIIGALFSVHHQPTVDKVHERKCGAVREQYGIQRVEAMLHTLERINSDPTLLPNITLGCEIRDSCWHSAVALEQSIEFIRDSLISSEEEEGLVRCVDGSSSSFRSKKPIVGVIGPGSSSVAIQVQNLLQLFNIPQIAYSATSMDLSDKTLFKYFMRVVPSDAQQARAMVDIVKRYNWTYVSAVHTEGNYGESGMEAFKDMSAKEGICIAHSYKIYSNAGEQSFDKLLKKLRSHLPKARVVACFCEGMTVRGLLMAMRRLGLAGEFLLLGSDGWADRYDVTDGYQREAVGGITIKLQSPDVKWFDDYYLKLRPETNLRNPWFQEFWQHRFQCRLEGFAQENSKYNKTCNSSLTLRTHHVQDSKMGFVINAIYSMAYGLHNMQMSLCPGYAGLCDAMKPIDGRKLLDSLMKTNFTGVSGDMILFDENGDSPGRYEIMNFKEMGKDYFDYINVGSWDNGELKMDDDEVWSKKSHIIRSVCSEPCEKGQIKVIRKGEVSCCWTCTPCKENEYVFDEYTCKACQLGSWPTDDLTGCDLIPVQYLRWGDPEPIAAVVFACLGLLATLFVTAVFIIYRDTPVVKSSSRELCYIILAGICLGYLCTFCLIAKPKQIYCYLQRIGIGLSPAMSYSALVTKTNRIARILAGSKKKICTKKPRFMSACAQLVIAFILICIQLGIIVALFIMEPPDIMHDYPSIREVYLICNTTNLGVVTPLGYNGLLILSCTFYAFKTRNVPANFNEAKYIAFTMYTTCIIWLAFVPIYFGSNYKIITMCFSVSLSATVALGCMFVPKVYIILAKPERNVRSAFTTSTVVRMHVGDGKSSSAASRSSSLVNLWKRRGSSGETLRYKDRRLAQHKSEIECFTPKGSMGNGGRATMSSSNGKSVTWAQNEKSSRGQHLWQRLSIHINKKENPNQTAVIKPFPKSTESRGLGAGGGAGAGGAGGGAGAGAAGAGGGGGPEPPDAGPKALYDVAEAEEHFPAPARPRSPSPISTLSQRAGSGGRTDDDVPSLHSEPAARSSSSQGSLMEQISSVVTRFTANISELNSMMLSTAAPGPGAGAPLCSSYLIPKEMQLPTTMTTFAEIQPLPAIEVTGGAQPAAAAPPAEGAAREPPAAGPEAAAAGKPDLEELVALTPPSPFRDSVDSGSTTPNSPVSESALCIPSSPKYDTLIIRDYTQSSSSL

| pIC50 | SMILES |
| --- | --- |
| 7.15 | CC(C)N(CCc1ccccc1)C(=O)C#Cc1cccc(Cl)c1 [Example 238, 3-(3-chlorophenyl)-N-isopropyl-N-phenethylpropiolamide] |
| 6.35 | O=C(C#Cc1cccc(Cl)c1)NCCc1cccc(C(F)(F)F)c1 [Example 219, 3-(3-chlorophenyl)-N-(3-(trifluoromethyl)phenethyl)propiolamide] |
| 7.48 | O=C(C#Cc1cccc(Cl)c1)NCCc1ccccc1C(F)(F)F [Example 250, 3-(3-chlorophenyl)-N-(2-(trifluoromethyl)phenethyl)propiolamide] |
| 7.55 | CN(CCc1ccccc1C(F)(F)F)C(=O)C#Cc1cccc(Cl)c1 [Example 251, 3-(3-chlorophenyl)-N-methyl-N-(2-(trifluormethyl)phenethyl)propiolamide] |
| 7.12 | CN(CCc1cccc(C(F)(F)F)c1)C(=O)C#Cc1cccc(Cl)c1 [Example 222, 3-(3-chlorophenyl)-N-methyl-N-(3-(trifluoromethyl)phenethyl)propiolamide] |
| 7.92 | O=C(C#Cc1cccc(Cl)c1)NCCc1cccc(F)c1 [Example 216, 3-(3-chlorophenyl)-N-(3-fluorophenethyl)propiolamide] |
| 8.05 | O=C(C#Cc1cccc(Cl)c1)NCCc1ccccc1F [Example 215, 3-(3-chlorophenyl)-N-(2-fluorophenethyl)propiolamide] |
| 8.15 | O=C(C#Cc1cccc(Cl)c1)NCCc1cccnc1 [Example 235, 3-(3-chlorophenyl)-N-(2-(pyridine-3-yl)ethyl)propiolamide] |
| 7.40 | Cc1cccc(CCNC(=O)C#Cc2cccc(Cl)c2)c1 [Example 224, 3-(3-chlorophenyl)-N-(3-methylphenethyl)propiolamide] |
| 7.36 | CCN(CCc1ccccc1)C(=O)C#Cc1cccc(Cl)c1 [Example 237, 3-(3-chlorophenyl)-N-ethyl-N-phenethylpropiolamide] |
| 6.85 | O=C(C#Cc1cccc(Cl)c1)NCCn1cccn1 [Example 231, N-(2-(1H-pyrazol-1-yl)ethyl)-3-(3-chlorophenyl)propiolamide] |
| 6.85 | CC(Cc1cccnc1)N(C)C(=O)C#Cc1cccc(Cl)c1 (centres unmarked) [Example 247, 3-(3-chlorophenyl)-N-methyl-N-(1-(pyridine-3-yl)propane-2-yl)propiolamide] |
| 6.68 | Cc1ccc(CCNC(=O)C#Cc2cccc(Cl)c2)cc1 [Example 225, 3-(3-chlorophenyl)-N-(4-methylphenethyl)propiolamide] |
| 7.64 | CN(CCc1ccncc1)C(=O)C#Cc1cccc(Cl)c1 [Example 244, 3-(3-chlorophenyl)-N-methyl-N-(2-(pyridine-4-yl)ethyl)propiolamide] |
| 7.29 | CN(CCn1cccn1)C(=O)C#Cc1cccc(Cl)c1 [Example 234, N-(2-(1H-pyrazol-1-yl)ethyl)-3-(3-chlorophenyl)-N-methylpropiolamide] |

Same assay, conditions: 10 μM test compound; 5 nM [3H]-MPEP; 450 μg protein pig brain homogenate; 60 min room temperature

| SMILES | inhibition at 10 µM [%] |
| --- | --- |
| O=C(C#Cc1cccs1)NCCc1cccs1 [Example 73, 3-(thiophene-2-yl)-N-(2-(thiophene-2-yl)ethyl)propiolamide] | 76 |
| COc1cccc(C#CC(=O)NCCc2c[nH]c3ccccc23)c1 [Example 87, N-(2-(1H-indol-3-yl)ethyl)-3-(3-methoxyphenyl)propiolamide] | 42 |
| COc1ccccc1CCNC(=O)C#Cc1ccccc1 [Example 136, N-(2-methoxyphenethyl)-3-phenylpropiolamide] | 110 |
| O=C(C#Cc1ccc(F)cc1F)NCCc1cccs1 [Example 117, 3-(2,4-difluorophenyl)-N-(2-(thiophene-2-yl)ethyl)propiolamide] | 33 |
| COc1cccc(C#CC(=O)NCCc2ccccc2OC)c1 [Example 132, N-(2-methoxyphenethyl)-3-(3-methoxyphenyl)propiolamide] | 83 |
| O=C(C#Cc1cccs1)NCCc1ccccn1 [Example 25, N-(2-(pyridine-2-yl)ethyl)-3-thiophene-2-yl-propiolamide] | 68 |
| COc1cccc(C#CC(=O)N(C)CCc2ccccc2)c1 [Example 80, 3-(3-methoxyphenyl)-N-methyl-N-phenethylpropiolamide] | 70 |
| CN(CCc1ccccc1)C(=O)C#Cc1ccccc1C#N [Example 55, 3-(2-cyanophenyl)-N-methyl-N-phenethylpropiolamide] | 40 |
| O=C(C#Cc1ccccc1)NCCc1ccccn1 [Example 11, 3-phenyl-N-(2-(pyridine-2-yl)ethyl)propiolamide] | 81 |
| O=C(C#Cc1ccccc1)NCCc1ccc(F)cc1 [Example 68, N-(4-fluorophenethyl)-3-phenylpropiolamide] | 90 |
| COc1cccc(C#CC(=O)NCCc2ccc(Cl)cc2)c1 [Example 133, N-(4-chlorophenethyl)-3-(3-methoxyphenyl)propiolamide] | 65 |
| N#Cc1cccc(C#CC(=O)NCC(c2ccccc2)c2ccccc2)c1 [Example 98, 3-(3-cyanophenyl)-N-(2,2-diphenylethyl)propiolamide] | 40 |
| Cc1cccc(C#CC(=O)NCCc2c[nH]c3ccccc23)c1 [Example 57, N-(2-(1H-indol-3-yl)ethyl)-3-m-tolylpropiolamide] | 91 |
| O=C(C#Cc1ccccc1)NCCc1ccc(Cl)cc1 [Example 137, N-(4-chlorophenethyl)-3-phenylpropiolamide] | 67 |
| O=C(C#Cc1cccc(Cl)c1)NCCc1cccc(Cl)c1 [Example 93, N-(3-chlorophenethyl)-3-(3-chlorophenyl)propiolamide] | 89 |
| O=C(C#Cc1ccccc1)NCCc1ccc(Cl)c(Cl)c1 [Example 101, N-(3,4-dichlorophenethyl)-3-phenylpropiolamide] | 89 |
| Cc1cccc(C#CC(=O)NCCc2ccccc2)c1 [Example 84, N-phenethyl-3-m-tolylpropiolamide] | 89 |
| O=C(C#Cc1ccccc1)NCCc1cccc(Cl)c1 [Example 65, N-(3-chlorophenethyl)-3-phenylpropiolamide] | 97 |
| CN(CCc1ccccc1)C(=O)C#Cc1ccc(F)cc1F [Example 78, 3-(2,4-difluorophenyl)-N-methyl-N-phenethylpropiolamide] | 69 |
| CN(CCc1ccccc1)C(=O)C#Cc1ccccc1F [Example 42, 3-(2-fluorophenyl)-N-methyl-N-phenethylpropiolamide] | 90 |
| N#Cc1cccc(C#CC(=O)NCCc2ccc(Cl)c(Cl)c2)c1 [Example 104, 3-(3-cyanophenyl)-N-(3,4-dichlorophenethyl)propiolamide] | 84 |
| O=C(C#Cc1ccc(F)cc1)NCCc1ccccn1 [Example 20, 3-(4-fluoro-phenyl)-N-(2-(pyridine-2-yl)ethyl)propiolamide] | 54 |
| Cc1cc(C#CC(=O)NCCc2ccccn2)ccc1F [Example 7, 3-(4-fluoro-3-methylphenyl)-N-(2-(pyridine-2-yl)ethyl)propiolamide] | 82 |
| Cc1ccc(CCNC(=O)C#Cc2cccc(C#N)c2)cc1 [Example 97, 3-(3-cyanophenyl)-N-(4-methylphenethyl)propiolamide] | 96 |
| O=C(C#Cc1ccc(F)cc1)NCCc1cccc(Cl)c1 [Example 89, N-(3-chlorophenethyl)-3-(4-fluorophenyl)propiolamide] | 64 |
| O=C(C#Cc1cccs1)NCCc1cccc(Cl)c1 [Example 94, N-(3-chlorophenethyl)-3-(thiophene-2-yl)propiolamide] | 84 |
| Cc1cc(C#CC(=O)NCCc2ccccc2)ccc1F [Example 82, 3-(4-fluoro-3-methylphenyl)-N-phenethylpropiolamide] | 69 |
| Cc1ccc(C#CC(=O)N(C)CCc2ccccc2)c(C)c1 [Example 47, 3-(2,4-dimethylphenyl)-N-methyl-N-phenethylpropiolamide] | 51 |
| O=C(C#Cc1ccccc1F)NCCc1ccccn1 [Example 8, 3-(2-fluorophenyl)-N-(2-(pyridine-2-yl)ethyl)propiolamide] | 70 |

The remaining lines, values ahead:

| inhibition at 10 µM [%] | SMILES |
| --- | --- |
| 65 | O=C(C#Cc1cccs1)NCCc1ccc(Cl)cc1 [Example 190, N-(4-chlorophenethyl)-3-(thiophene-2-yl)propiolamide] |
| 91 | Cc1cccc(C#CC(=O)NCCc2ccc(Cl)cc2)c1 [Example 139, N-(4-chlorophenethyl)-3-m-tolylpropiolamide] |
| 96 | COc1ccccc1CCNC(=O)C#Cc1cccc(C#N)c1 [Example 191, 3-(3-cyanophenyl)-N-(2-methoxyphenethyl)propiolamide] |
| 66 | O=C(C#Cc1ccccc1F)NCCc1ccc(F)cc1 [Example 151, N-(4-fluorophenethyl)-3-(2-fluorophenyl)propiolamide] |
| 79 | O=C(C#Cc1ccccc1F)NCCc1cccc(Cl)c1 [Example 148, N-(3-chlorophenethyl)-3-(2-fluorophenyl)propiolamide] |
| 85 | COc1ccccc1CCNC(=O)C#Cc1cccs1 [Example 189, N-(2-methoxyphenethyl)-3-(thiophene-2-yl)propiolamide] |
